Test results published in the NIST ThermoML archive (doi:10.1016/j.fluid.2006.07.015).
Numbers after ± are expanded uncertainties.

Test: activity coefficient (dimensionless); of the first substance listed, at infinite dilution; xn = mol fraction of the nth substance listed
Settings: 101 kPa, Liquid, Chromatography, x1 = 0

Structure (SMILES)	activity coefficient (373.15 K)	activity coefficient (388.15 K)	activity coefficient (403.15 K)	activity coefficient (418.15 K)	activity coefficient (433.15 K)
CCCCCCCCCC [decane] + CCCCCCCCCCCCCCCCCCC(CCCCCCCCCCCCCCCCCC)CCCCC(CCCCCCCCCCCCCCCCCC)CCCCCCCCCCCCCCCCCC	0.418 ± 0.034	0.42 ± 0.034	0.421 ± 0.034	0.423 ± 0.034	0.425 ± 0.034
C#CCCCCCCCC [1-decyne] + CCCCCCCCCCCCCCCCCCC(CCCCCCCCCCCCCCCCCC)CCCCC(CCCCCCCCCCCCCCCCCC)CCCCCCCCCCCCCCCCCC	0.442 ± 0.033	0.446 ± 0.033	0.446 ± 0.033	0.446 ± 0.033	0.446 ± 0.033
C[C@H]1CC[C@H](C)CC1 [trans-1,4-dimethylcyclohexane] + CCCCCCCCCCCCCCCCCCC(CCCCCCCCCCCCCCCCCC)CCCCC(CCCCCCCCCCCCCCCCCC)CCCCCCCCCCCCCCCCCC	0.288 ± 0.036	0.295 ± 0.036	0.297 ± 0.036	0.298 ± 0.036	0.299 ± 0.036
C[C@@H]1CCCC[C@H]1C [trans-1,2-dimethylcyclohexane] + CCCCCCCCCCCCCCCCCCC(CCCCCCCCCCCCCCCCCC)CCCCC(CCCCCCCCCCCCCCCCCC)CCCCCCCCCCCCCCCCCC	0.28 ± 0.036	0.287 ± 0.036	0.29 ± 0.036	0.288 ± 0.036	0.295 ± 0.036
CCCCCCCCC [nonane] + CCCCCCCCCCCCCCCCCCC(CCCCCCCCCCCCCCCCCC)CCCCC(CCCCCCCCCCCCCCCCCC)CCCCCCCCCCCCCCCCCC	0.399 ± 0.034	0.401 ± 0.034	0.403 ± 0.034	0.404 ± 0.034	0.406 ± 0.034
C1=CCCC=C1 [1,3-cyclohexadiene] + CCCCCCCCCCCCCCCCCCC(CCCCCCCCCCCCCCCCCC)CCCCC(CCCCCCCCCCCCCCCCCC)CCCCCCCCCCCCCCCCCC	0.251 ± 0.036	0.253 ± 0.036	0.255 ± 0.036	0.252 ± 0.036	0.252 ± 0.036
CCCCc1ccccc1 [butylbenzene] + CCCCCCCCCCCCCCCCCCC(CCCCCCCCCCCCCCCCCC)CCCCC(CCCCCCCCCCCCCCCCCC)CCCCCCCCCCCCCCCCCC	0.357 ± 0.035	0.362 ± 0.035	0.359 ± 0.035	0.358 ± 0.035	0.354 ± 0.035
C1CCCCCCC1 [cyclooctane] + CCCCCCCCCCCCCCCCCCC(CCCCCCCCCCCCCCCCCC)CCCCC(CCCCCCCCCCCCCCCCCC)CCCCCCCCCCCCCCCCCC	0.258 ± 0.036	0.264 ± 0.036	0.265 ± 0.036	0.262 ± 0.036	0.264 ± 0.036
C1C2CC3CC1CC(C2)C3 [adamantane] + CCCCCCCCCCCCCCCCCCC(CCCCCCCCCCCCCCCCCC)CCCCC(CCCCCCCCCCCCCCCCCC)CCCCCCCCCCCCCCCCCC	0.337 ± 0.035	0.339 ± 0.035	0.337 ± 0.035	0.342 ± 0.035	0.343 ± 0.035
CC#CCCC [2-hexyne] + CCCCCCCCCCCCCCCCCCC(CCCCCCCCCCCCCCCCCC)CCCCC(CCCCCCCCCCCCCCCCCC)CCCCCCCCCCCCCCCCCC	0.378 ± 0.034	0.377 ± 0.034	0.377 ± 0.034	0.378 ± 0.034	0.38 ± 0.034
c1ccccc1 [benzene] + CCCCCCCCCCCCCCCCCCC(CCCCCCCCCCCCCCCCCC)CCCCC(CCCCCCCCCCCCCCCCCC)CCCCCCCCCCCCCCCCCC	0.269 ± 0.036	0.266 ± 0.036	0.263 ± 0.036	0.26 ± 0.036	0.258 ± 0.036
CC1CCCCC1 [methylcyclohexane] + CCCCCCCCCCCCCCCCCCC(CCCCCCCCCCCCCCCCCC)CCCCC(CCCCCCCCCCCCCCCCCC)CCCCCCCCCCCCCCCCCC	0.267 ± 0.036	0.273 ± 0.036	0.273 ± 0.036	0.272 ± 0.036	0.275 ± 0.036
C[C@H]1CC[C@@H](C)CC1 [cis-1,4-dimethylcyclohexane] + CCCCCCCCCCCCCCCCCCC(CCCCCCCCCCCCCCCCCC)CCCCC(CCCCCCCCCCCCCCCCCC)CCCCCCCCCCCCCCCCCC	0.287 ± 0.036	0.294 ± 0.036	0.296 ± 0.036	0.296 ± 0.036	0.3 ± 0.036
CCC#CCC [3-hexyne] + CCCCCCCCCCCCCCCCCCC(CCCCCCCCCCCCCCCCCC)CCCCC(CCCCCCCCCCCCCCCCCC)CCCCCCCCCCCCCCCCCC	0.404 ± 0.034	0.406 ± 0.034	0.406 ± 0.034	0.417 ± 0.034	0.419 ± 0.034
C1CCCCCC1 [cycloheptane] + CCCCCCCCCCCCCCCCCCC(CCCCCCCCCCCCCCCCCC)CCCCC(CCCCCCCCCCCCCCCCCC)CCCCCCCCCCCCCCCCCC	0.252 ± 0.036	0.257 ± 0.036	0.256 ± 0.036	0.253 ± 0.036	0.255 ± 0.036
CCCc1ccccc1 [propylbenzene] + CCCCCCCCCCCCCCCCCCC(CCCCCCCCCCCCCCCCCC)CCCCC(CCCCCCCCCCCCCCCCCC)CCCCCCCCCCCCCCCCCC	0.336 ± 0.035	0.339 ± 0.035	0.336 ± 0.035	0.331 ± 0.035	0.33 ± 0.035
C1CCCCC1 [cyclohexane] + CCCCCCCCCCCCCCCCCCC(CCCCCCCCCCCCCCCCCC)CCCCC(CCCCCCCCCCCCCCCCCC)CCCCCCCCCCCCCCCCCC	0.25 ± 0.036	0.251 ± 0.036	0.246 ± 0.036	0.245 ± 0.036	0.247 ± 0.036
CCCCCCCC [octane] + CCCCCCCCCCCCCCCCCCC(CCCCCCCCCCCCCCCCCC)CCCCC(CCCCCCCCCCCCCCCCCC)CCCCCCCCCCCCCCCCCC	0.38 ± 0.034	0.381 ± 0.034	0.382 ± 0.034	0.384 ± 0.034	0.386 ± 0.034
c1ccc2ccccc2c1 [naphthalene] + CCCCCCCCCCCCCCCCCCC(CCCCCCCCCCCCCCCCCC)CCCCC(CCCCCCCCCCCCCCCCCC)CCCCCCCCCCCCCCCCCC	0.384 ± 0.034	0.397 ± 0.034	0.4 ± 0.034	0.392 ± 0.034	0.386 ± 0.034
C1CCC2CCCC2C1 (stereo not given) [1H-indene, octahydro-] + CCCCCCCCCCCCCCCCCCC(CCCCCCCCCCCCCCCCCC)CCCCC(CCCCCCCCCCCCCCCCCC)CCCCCCCCCCCCCCCCCC	0.26 ± 0.036	0.268 ± 0.036	0.269 ± 0.036	0.266 ± 0.036	0.27 ± 0.036
C1CCCCCCCCC1 [cyclodecane] + CCCCCCCCCCCCCCCCCCC(CCCCCCCCCCCCCCCCCC)CCCCC(CCCCCCCCCCCCCCCCCC)CCCCCCCCCCCCCCCCCC	0.269 ± 0.036	0.281 ± 0.036	0.283 ± 0.036	0.287 ± 0.036	0.288 ± 0.036
CCCCCCc1ccccc1 [hexylbenzene] + CCCCCCCCCCCCCCCCCCC(CCCCCCCCCCCCCCCCCC)CCCCC(CCCCCCCCCCCCCCCCCC)CCCCCCCCCCCCCCCCCC	0.397 ± 0.034	0.405 ± 0.034	0.401 ± 0.034	0.404 ± 0.034	0.401 ± 0.034
C1=CCCCC1 [cyclohexene] + CCCCCCCCCCCCCCCCCCC(CCCCCCCCCCCCCCCCCC)CCCCC(CCCCCCCCCCCCCCCCCC)CCCCCCCCCCCCCCCCCC	0.239 ± 0.036	0.244 ± 0.036	0.243 ± 0.036	0.241 ± 0.036	0.243 ± 0.036
CCc1ccccc1 [ethylbenzene] + CCCCCCCCCCCCCCCCCCC(CCCCCCCCCCCCCCCCCC)CCCCC(CCCCCCCCCCCCCCCCCC)CCCCCCCCCCCCCCCCCC	0.314 ± 0.035	0.315 ± 0.035	0.313 ± 0.035	0.304 ± 0.035	0.304 ± 0.035
C1CC[C@H]2CCCC[C@H]2C1 [cis-decahydronaphthalene] + CCCCCCCCCCCCCCCCCCC(CCCCCCCCCCCCCCCCCC)CCCCC(CCCCCCCCCCCCCCCCCC)CCCCCCCCCCCCCCCCCC	0.268 ± 0.036	0.278 ± 0.036	0.28 ± 0.036	0.275 ± 0.036	0.279 ± 0.036
CCCCCCCCCCCC [dodecane] + CCCCCCCCCCCCCCCCCCC(CCCCCCCCCCCCCCCCCC)CCCCC(CCCCCCCCCCCCCCCCCC)CCCCCCCCCCCCCCCCCC	0.456 ± 0.033	0.457 ± 0.033	0.459 ± 0.033	0.46 ± 0.033	0.462 ± 0.033
C#CCCCCCCC [1-nonyne] + CCCCCCCCCCCCCCCCCCC(CCCCCCCCCCCCCCCCCC)CCCCC(CCCCCCCCCCCCCCCCCC)CCCCCCCCCCCCCCCCCC	0.445 ± 0.033	0.443 ± 0.033	0.438 ± 0.033	0.431 ± 0.034	0.425 ± 0.034
C=CCCCCCC [oct-1-ene] + CCCCCCCCCCCCCCCCCCC(CCCCCCCCCCCCCCCCCC)CCCCC(CCCCCCCCCCCCCCCCCC)CCCCCCCCCCCCCCCCCC	0.374 ± 0.034	0.374 ± 0.034	0.374 ± 0.034	0.375 ± 0.034	0.377 ± 0.034
C=CCCCCCCCCC [1-undecene] + CCCCCCCCCCCCCCCCCCC(CCCCCCCCCCCCCCCCCC)CCCCC(CCCCCCCCCCCCCCCCCC)CCCCCCCCCCCCCCCCCC	0.435 ± 0.033	0.436 ± 0.033	0.435 ± 0.033	0.436 ± 0.033	0.436 ± 0.033
CCC(C)CC(C)C (stereo not given) [2,4-dimethylhexane] + CCCCCCCCCCCCCCCCCCC(CCCCCCCCCCCCCCCCCC)CCCCC(CCCCCCCCCCCCCCCCCC)CCCCCCCCCCCCCCCCCC	0.394 ± 0.034	0.396 ± 0.034	0.396 ± 0.034	0.398 ± 0.034	0.405 ± 0.034
